Experimental data: the NIST ThermoML archive (doi:10.1021/je900596d)
Numbers after ± are expanded uncertainties.

Conditions: for mass density: Vibrating tube method

FC(F)=C(F)C(F)(F)F [hexafluoropropene]
Conditions	mass density [kg/m3]	vapor or sublimation pressure [kPa]
343.18 K, 7163.7 kPa, Liquid	1166.5 ± 1.2	–
343.18 K, 7207.1 kPa, Liquid	1167.25 ± 1.2	–
343.18 K, 7249.5 kPa, Liquid	1168.08 ± 1.2	–
343.18 K, 7293.3 kPa, Liquid	1168.78 ± 1.2	–
343.18 K, 7354.7 kPa, Liquid	1169.81 ± 1.2	–
343.18 K, 7477.5 kPa, Liquid	1171.63 ± 1.2	–
343.18 K, 7539.3 kPa, Liquid	1172.69 ± 1.2	–
343.18 K, 7580 kPa, Liquid	1173.37 ± 1.2	–
343.18 K, 7621.6 kPa, Liquid	1174.18 ± 1.2	–
343.18 K, 7663.4 kPa, Liquid	1174.54 ± 1.2	–
343.18 K, 7709.7 kPa, Liquid	1175.39 ± 1.2	–
343.18 K, 7753.6 kPa, Liquid	1176.17 ± 1.2	–
343.18 K, 7797.5 kPa, Liquid	1176.76 ± 1.2	–
343.18 K, 7837.6 kPa, Liquid	1177.31 ± 1.2	–
343.18 K, 7898.4 kPa, Liquid	1178.24 ± 1.2	–
343.18 K, 7941.1 kPa, Liquid	1178.97 ± 1.2	–
343.18 K, 7984.5 kPa, Liquid	1179.58 ± 1.2	–
343.18 K, 8043.1 kPa, Liquid	1180.22 ± 1.2	–
343.18 K, 8085.6 kPa, Liquid	1180.85 ± 1.2	–
343.18 K, 8131.1 kPa, Liquid	1181.65 ± 1.2	–
343.18 K, 8209.9 kPa, Liquid	1183.02 ± 1.2	–
343.18 K, 8291.5 kPa, Liquid	1184.04 ± 1.2	–
343.18 K, 8335.5 kPa, Liquid	1184.74 ± 1.2	–
343.18 K, 8378 kPa, Liquid	1185.42 ± 1.2	–
343.18 K, 8419.6 kPa, Liquid	1185.91 ± 1.2	–
343.18 K, 8464.8 kPa, Liquid	1186.51 ± 1.2	–
343.18 K, 8525.6 kPa, Liquid	1187.33 ± 1.2	–
343.18 K, 8587 kPa, Liquid	1188.25 ± 1.2	–
343.18 K, 8628.5 kPa, Liquid	1188.86 ± 1.2	–
343.18 K, 8670.7 kPa, Liquid	1189.47 ± 1.2	–
343.18 K, 8714.6 kPa, Liquid	1189.91 ± 1.2	–
343.18 K, 8776.2 kPa, Liquid	1190.93 ± 1.2	–
343.18 K, 8818.3 kPa, Liquid	1191.58 ± 1.2	–
343.18 K, 8881.2 kPa, Liquid	1192.4 ± 1.2	–
343.18 K, 8941.7 kPa, Liquid	1193.53 ± 1.2	–
343.18 K, 9000.5 kPa, Liquid	1194.02 ± 1.2	–
343.18 K, 9064 kPa, Liquid	1194.66 ± 1.2	–
343.18 K, 9123.4 kPa, Liquid	1195.43 ± 1.2	–
343.18 K, 9184.1 kPa, Liquid	1196.23 ± 1.2	–
343.18 K, 9262 kPa, Liquid	1197.29 ± 1.2	–
343.18 K, 9304.6 kPa, Liquid	1197.74 ± 1.2	–
343.18 K, 9350.1 kPa, Liquid	1198.56 ± 1.2	–
343.18 K, 9408.2 kPa, Liquid	1199.15 ± 1.2	–
343.18 K, 9449.8 kPa, Liquid	1199.74 ± 1.2	–
343.18 K, 9509.5 kPa, Liquid	1200.56 ± 1.2	–
343.18 K, 9567.5 kPa, Liquid	1201.28 ± 1.2	–
343.18 K, 9607.9 kPa, Liquid	1202.1 ± 1.2	–
343.18 K, 9667.5 kPa, Liquid	1202.79 ± 1.2	–
343.18 K, 9708 kPa, Liquid	1203.31 ± 1.3	–
343.18 K, 9749.9 kPa, Liquid	1203.76 ± 1.2	–
343.18 K, 9796.9 kPa, Liquid	1204.53 ± 1.2	–
343.18 K, 9839 kPa, Liquid	1205.06 ± 1.3	–
343.18 K, 9920.9 kPa, Liquid	1205.9 ± 1.2	–
343.18 K, 9962.6 kPa, Liquid	1206.45 ± 1.3	–
343.21 K, Liquid, Closed cell (Static) method	–	2243.8 ± 4
343.26 K, 3.2 kPa, Fluid (supercritical or subcritical phases)	0.22 ± 0.03	–
343.26 K, 5.9 kPa, Fluid (supercritical or subcritical phases)	0.35 ± 0.03	–
343.26 K, 8.6 kPa, Fluid (supercritical or subcritical phases)	0.55 ± 0.03	–
343.26 K, 10.3 kPa, Fluid (supercritical or subcritical phases)	0.63 ± 0.03	–
343.26 K, 12.1 kPa, Fluid (supercritical or subcritical phases)	0.73 ± 0.03	–
343.26 K, 14.8 kPa, Fluid (supercritical or subcritical phases)	0.81 ± 0.03	–
343.26 K, 16.4 kPa, Fluid (supercritical or subcritical phases)	1 ± 0.03	–
343.26 K, 19.5 kPa, Fluid (supercritical or subcritical phases)	1.07 ± 0.03	–
343.26 K, 22.4 kPa, Fluid (supercritical or subcritical phases)	1.29 ± 0.03	–
343.26 K, 24.3 kPa, Fluid (supercritical or subcritical phases)	1.34 ± 0.03	–
343.26 K, 25.9 kPa, Fluid (supercritical or subcritical phases)	1.39 ± 0.03	–
343.26 K, 29 kPa, Fluid (supercritical or subcritical phases)	1.68 ± 0.03	–
343.26 K, 32 kPa, Fluid (supercritical or subcritical phases)	1.75 ± 0.03	–
343.26 K, 33.6 kPa, Fluid (supercritical or subcritical phases)	1.83 ± 0.03	–
343.26 K, 36.6 kPa, Fluid (supercritical or subcritical phases)	1.97 ± 0.03	–
343.26 K, 38.2 kPa, Fluid (supercritical or subcritical phases)	2.07 ± 0.03	–
343.26 K, 39.9 kPa, Fluid (supercritical or subcritical phases)	2.11 ± 0.03	–
343.26 K, 43.2 kPa, Fluid (supercritical or subcritical phases)	2.31 ± 0.03	–
343.26 K, 45.9 kPa, Fluid (supercritical or subcritical phases)	2.54 ± 0.03	–
343.26 K, 50.6 kPa, Fluid (supercritical or subcritical phases)	2.72 ± 0.03	–
343.26 K, 55.4 kPa, Fluid (supercritical or subcritical phases)	3 ± 0.03	–
343.26 K, 59.9 kPa, Fluid (supercritical or subcritical phases)	3.25 ± 0.03	–
343.26 K, 63.1 kPa, Fluid (supercritical or subcritical phases)	3.46 ± 0.03	–
343.26 K, 66.1 kPa, Fluid (supercritical or subcritical phases)	3.7 ± 0.03	–
343.26 K, 70.8 kPa, Fluid (supercritical or subcritical phases)	3.87 ± 0.03	–
343.26 K, 72.4 kPa, Fluid (supercritical or subcritical phases)	3.95 ± 0.03	–
343.26 K, 74.2 kPa, Fluid (supercritical or subcritical phases)	4.04 ± 0.03	–
343.26 K, 77.2 kPa, Fluid (supercritical or subcritical phases)	4.21 ± 0.03	–
343.26 K, 80.1 kPa, Fluid (supercritical or subcritical phases)	4.42 ± 0.03	–
343.26 K, 81.8 kPa, Fluid (supercritical or subcritical phases)	4.49 ± 0.03	–
343.26 K, 83.4 kPa, Fluid (supercritical or subcritical phases)	4.54 ± 0.03	–
343.26 K, 86.6 kPa, Fluid (supercritical or subcritical phases)	4.74 ± 0.03	–
343.26 K, 89.9 kPa, Fluid (supercritical or subcritical phases)	4.91 ± 0.03	–
343.26 K, 94.8 kPa, Fluid (supercritical or subcritical phases)	5.2 ± 0.03	–
343.26 K, 97.7 kPa, Fluid (supercritical or subcritical phases)	5.42 ± 0.03	–
343.26 K, 104 kPa, Fluid (supercritical or subcritical phases)	5.73 ± 0.03	–
343.26 K, 110.1 kPa, Fluid (supercritical or subcritical phases)	6.1 ± 0.03	–
343.26 K, 116.3 kPa, Fluid (supercritical or subcritical phases)	6.4 ± 0.03	–
343.26 K, 122.7 kPa, Fluid (supercritical or subcritical phases)	6.8 ± 0.03	–
343.26 K, 129.3 kPa, Fluid (supercritical or subcritical phases)	7.14 ± 0.03	–
343.26 K, 135.5 kPa, Fluid (supercritical or subcritical phases)	7.51 ± 0.03	–
343.26 K, 141.7 kPa, Fluid (supercritical or subcritical phases)	7.92 ± 0.04	–
343.26 K, 148.2 kPa, Fluid (supercritical or subcritical phases)	8.27 ± 0.04	–
343.26 K, 154.4 kPa, Fluid (supercritical or subcritical phases)	8.6 ± 0.04	–
343.26 K, 160.9 kPa, Fluid (supercritical or subcritical phases)	8.89 ± 0.04	–
343.26 K, 170.1 kPa, Fluid (supercritical or subcritical phases)	9.39 ± 0.04	–
343.26 K, 176.8 kPa, Fluid (supercritical or subcritical phases)	9.8 ± 0.04	–
343.26 K, 183.2 kPa, Fluid (supercritical or subcritical phases)	10.15 ± 0.04	–
343.26 K, 189.6 kPa, Fluid (supercritical or subcritical phases)	10.49 ± 0.04	–
343.26 K, 200.5 kPa, Fluid (supercritical or subcritical phases)	11.16 ± 0.04	–
343.26 K, 213.3 kPa, Fluid (supercritical or subcritical phases)	11.94 ± 0.04	–
343.26 K, 225.8 kPa, Fluid (supercritical or subcritical phases)	12.7 ± 0.04	–
343.26 K, 237.9 kPa, Fluid (supercritical or subcritical phases)	13.34 ± 0.04	–
343.26 K, 250.5 kPa, Fluid (supercritical or subcritical phases)	14.05 ± 0.04	–
343.26 K, 262.7 kPa, Fluid (supercritical or subcritical phases)	14.74 ± 0.04	–
343.26 K, 274 kPa, Fluid (supercritical or subcritical phases)	15.32 ± 0.04	–
343.26 K, 286 kPa, Fluid (supercritical or subcritical phases)	16.09 ± 0.04	–
343.26 K, 298.3 kPa, Fluid (supercritical or subcritical phases)	16.8 ± 0.04	–
343.26 K, 311.2 kPa, Fluid (supercritical or subcritical phases)	17.55 ± 0.04	–
343.26 K, 323.1 kPa, Fluid (supercritical or subcritical phases)	18.22 ± 0.04	–
343.26 K, 335.5 kPa, Fluid (supercritical or subcritical phases)	18.98 ± 0.04	–
343.26 K, 347.7 kPa, Fluid (supercritical or subcritical phases)	19.66 ± 0.04	–
343.26 K, 360 kPa, Fluid (supercritical or subcritical phases)	20.46 ± 0.04	–
343.26 K, 372.1 kPa, Fluid (supercritical or subcritical phases)	21.09 ± 0.04	–
343.26 K, 384.1 kPa, Fluid (supercritical or subcritical phases)	21.84 ± 0.05	–
343.26 K, 396.5 kPa, Fluid (supercritical or subcritical phases)	22.56 ± 0.05	–
343.26 K, 408.2 kPa, Fluid (supercritical or subcritical phases)	23.28 ± 0.05	–
343.26 K, 420.5 kPa, Fluid (supercritical or subcritical phases)	24.04 ± 0.05	–
343.26 K, 431.3 kPa, Fluid (supercritical or subcritical phases)	24.66 ± 0.05	–
343.26 K, 443.3 kPa, Fluid (supercritical or subcritical phases)	25.35 ± 0.05	–
343.26 K, 455.1 kPa, Fluid (supercritical or subcritical phases)	26 ± 0.05	–
343.26 K, 466.9 kPa, Fluid (supercritical or subcritical phases)	26.77 ± 0.05	–
343.26 K, 478.8 kPa, Fluid (supercritical or subcritical phases)	27.49 ± 0.05	–
343.26 K, 490.9 kPa, Fluid (supercritical or subcritical phases)	28.19 ± 0.05	–
343.26 K, 507.3 kPa, Fluid (supercritical or subcritical phases)	29.18 ± 0.05	–
343.26 K, 521.6 kPa, Fluid (supercritical or subcritical phases)	30.11 ± 0.05	–
343.26 K, 535.5 kPa, Fluid (supercritical or subcritical phases)	30.9 ± 0.05	–
343.26 K, 548.6 kPa, Fluid (supercritical or subcritical phases)	31.65 ± 0.06	–
343.26 K, 561.3 kPa, Fluid (supercritical or subcritical phases)	32.53 ± 0.06	–
